The values that follow come from ChEMBL document CHEMBL1201862, “PubChem BioAssay data set” (2004).

What all share (experiment): growth of human tumour cells (NCI), 48 h
The test system of assay [1] is CAKI-1.
Assay [2] deals with EKVX.
Assay [3] relates to HCT-116.
Assay [4] concerns HOP-92.
Assay [5] has as its system HT-29.
The subject of assay [6] is IGROV-1.
Assay [7] relates to K562.
The test system of assay [8] is LOX IMVI.
The subject of assay [9] is M14.
In assay [10] the test system is MOLT-4.
Assay [11] deals with NCI-H460.
Assay [12] concerns SF-295.
In assay [13] the test system is SK-MEL-5.
Assay [14] relates to UO-31.
In assay [15] the test system is OVCAR-3.

The structures appear in SMILES notation.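 Dose response: 5 concentrations. Exposure: 48 h. Format: 96-well plates. Endpoint: linear interpolation; highest concentration if not reached. Abbreviation: GI50, concentration required for 50% inhibition of growth.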 Calls of active or inactive are those of the source. Cut-off read from the data, not from the text of the source: active = GI50 up to about 1.1 µM and inactive = higher.

As to `CCOc1ccc(C(CN2CCOCC2)C(C)=O)cc1OC` (configuration not stated), the GI50 was 10.8 µM (inactive) in assay [1]; 22.6 µM (inactive) in [2]; 20.4 µM (inactive) in assay [3]; 18.9 µM (inactive) in assay [4]; 19.6 µM (inactive) in [5]; 25.2 µM (inactive) in assay [6]. Also, the GI50 in assay [7] was 3.1 µM (inactive); in assay [8] it was 17 µM (inactive); in assay [9] it was 17.5 µM (inactive); in assay [10] it was 21.9 µM (inactive); in assay [11], 18.4 µM (inactive); in assay [12], 39.6 µM (inactive). The GI50 was 20.1 µM (inactive) in [13] and 14.6 µM (inactive) in assay [14].
Turning to `CCCCCCC(O)CC[C@H]1CCC[C@@H](C)N1` (some centres not stated), the GI50 in assay [1] was > 100 µM (inactive); in [2], > 100 µM (inactive); in assay [3], > 100 µM (inactive); in [4], > 100 µM (inactive); in [5] it was 29 µM (inactive); in assay [6], > 100 µM (inactive). In addition, the GI50 in assay [7] is > 100 µM (inactive); in assay [8] it was > 100 µM (inactive); in [9], > 100 µM (inactive); in assay [10], > 100 µM (inactive); in assay [11], > 100 µM (inactive); in assay [15], > 10 µM (inactive). For the same compound, the GI50 in [12] is > 31.6 µM (inactive); in assay [13], 55 µM (inactive); in [14], > 84.3 µM (inactive).
Turning to `O=S1(=O)OCCOS(=O)(=O)C1Cc1ccccc1`, the GI50 in [1] is 55.8 µM (inactive); in assay [2], 33.7 µM (inactive); in assay [3], 48.4 µM (inactive); in assay [4], 70.6 µM (inactive); in assay [5], 63.5 µM (inactive); in assay [6] it was 28.8 µM (inactive). The GI50 in assay [7] is 61 µM (inactive); in [8], 35.7 µM (inactive); in assay [10], 25.3 µM (inactive); in [11] it was 33.2 µM (inactive); in assay [15], 20.8 µM (inactive); in assay [12], 53.8 µM (inactive). In addition, the GI50 in assay [14] was 57.8 µM (inactive).
Consider `CCOP(=O)(OCC)C1C(=O)O[C@H]2CCCC[C@@H]12` (some centres not stated), for which the GI50 in [1], in assay [2], in assay [3], in assay [5], in assay [6] and in [7] was > 100 µM (inactive) in each case. Moreover, the GI50 in [8], in assay [9], in [10], in assay [11], in [15] and in [12] was > 100 µM (inactive) in each case. The GI50 in [13] is > 100 µM (inactive).
Regarding `COc1ccc(OC)c(NC(=O)C(=O)C(C(C)=O)c2nc3ccc(Cl)cc3nc2O)c1` (configuration not stated), the GI50 in assay [1], in [2], in [3], in [4], in assay [5] and in assay [6] was > 50 µM (inactive) throughout. Further, the GI50 in [7], in assay [8], in assay [9], in assay [10], in assay [11] and in [15] was > 50 µM (inactive) in each case. The GI50 in assay [12], in [13] and in assay [14] was > 50 µM (inactive) each time.
With `Cn1cc(NC(=O)c2cc(NC(=O)CCCCCCCCCCC(=O)Nc3cc(C(=O)Nc4cc(C(=O)NCCC(=N)N)n(C)c4)n(C)c3)cn2C)cc1C(=O)NCCC(=N)N`, the GI50 in assay [1] is 46.8 µM (inactive); in [2], 31 µM (inactive); in [3] it was 27 µM (inactive); in assay [5], 29.1 µM (inactive); in assay [6], 24.5 µM (inactive); in assay [7], 74 µM (inactive). The GI50 was 40.4 µM (inactive) in [8]; 28.2 µM (inactive) in assay [9]; 45.9 µM (inactive) in assay [10]; 18.6 µM (inactive) in assay [11]; 52.7 µM (inactive) in [15]; 50.8 µM (inactive) in assay [12]. For the same compound, the GI50 in assay [13] is 15.8 µM (inactive); in assay [14], > 100 µM (inactive).
In the case of `CCOc1ccccc1N1C(=O)C(=O)C(c2nc3ccccc3s2)C(=O)C1=O`, the GI50 in [1] is 38.5 µM (inactive); in assay [2], > 100 µM (inactive); in assay [3], 35.8 µM (inactive); in assay [4], 36.2 µM (inactive); in assay [5] it was 39.8 µM (inactive); in assay [6], 19.3 µM (inactive). For the same compound, the GI50 is 55.5 µM (inactive) in assay [8]; > 100 µM (inactive) in assay [9]; 26.4 µM (inactive) in assay [11]; 17.4 µM (inactive) in [15]; 41.7 µM (inactive) in [12]; 34.7 µM (inactive) in [14].
On to `CC1=CC(N2C(=O)C(C)=CC2O)NC1=O` (configuration not stated), for which the GI50 in assay [1], in assay [2], in [3], in [4], in assay [5] and in [8] was > 100 µM (inactive) each time. Also, the GI50 in assay [9], in [11], in assay [15], in assay [12] and in assay [14] was > 100 µM (inactive) each time.
As for `COC(=O)C(=O)C(C(C)=O)C(=O)NCc1ccc(OC)c(OC)c1` (configuration not stated), the GI50 in assay [1], in assay [2], in assay [3], in [4], in assay [5] and in assay [6] was > 100 µM (inactive) throughout. In addition, the GI50 in [7], in assay [8], in assay [9], in [10], in assay [11] and in assay [15] was > 100 µM (inactive) throughout. In addition, the GI50 in assay [12], in assay [13] and in [14] was > 100 µM (inactive) each time.
With `Brc1ccc2ns[s+]c2c1`, the GI50 was 2.49 µM (inactive) in assay [1]; 13 µM (inactive) in assay [2]; 2.7 µM (inactive) in assay [3]; 6.73 µM (inactive) in assay [4]; 1.3 µM (inactive) in assay [5]; 26.7 µM (inactive) in assay [6]. Also, the GI50 in assay [7] was 0.321 µM (active); in [8], 0.659 µM (active); in assay [9], 0.45 µM (active); in assay [10], 4.65 µM (inactive); in assay [11], 3.3 µM (inactive); in assay [15] it was 29.1 µM (inactive). Also, the GI50 in assay [12] is 4.46 µM (inactive); in assay [14] it was 4.36 µM (inactive).
`CC1(C)OC2C(=O)OC(COCc3ccccc3)C2O1` (configuration not stated): the GI50 in assay [1], in assay [2], in assay [3], in [4], in assay [5] and in assay [6] was > 100 µM (inactive) throughout. In addition, the GI50 in [7], in [8], in assay [9], in assay [10], in [11] and in assay [15] was > 100 µM (inactive) throughout. For the same compound, the GI50 in [12], in assay [13] and in [14] was > 100 µM (inactive) each time.
With `CN/N=C(\C(=O)Nc1ccc(C(F)(F)F)cc1[N+](=O)[O-])C(c1cnc2ccc([N+](=O)[O-])cc2n1)[N+](=O)[O-]` (configuration not stated), the GI50 is 14.3 µM (inactive) in assay [1]; 6.71 µM (inactive) in assay [2]; 41.4 µM (inactive) in assay [3]; 64.1 µM (inactive) in assay [4]; 67.1 µM (inactive) in assay [5]; > 100 µM (inactive) in assay [6]. The GI50 in assay [7] was 8.79 µM (inactive); in [8], 12.1 µM (inactive); in assay [9], > 100 µM (inactive); in assay [10], 14.8 µM (inactive); in assay [11], 33.3 µM (inactive); in [15], 28.6 µM (inactive). In addition, the values for the GI50 in [12], in [13] and in assay [14] were 37.7 µM (inactive), 28.1 µM (inactive) and 16 µM (inactive), respectively.
Take `Cc1cc(CC(=O)NCCO)n(CCO)c(=O)c1`: the GI50 in assay [1], in assay [3], in [4], in [5], in [6] and in assay [7] was > 100 µM (inactive) each time. For the same compound, the GI50 in assay [8], in assay [9], in [10], in [11], in assay [15] and in [12] was > 100 µM (inactive) in each case. Further, the GI50 in [13] and in assay [14] was > 100 µM (inactive) throughout.
In the case of `Cn1c(=O)nc2n(-c3ccc(F)c(F)c3)c3ccccc3nc-2c1=O`, the GI50 in [1] was 38.4 µM (inactive); in assay [2], 4.82 µM (inactive); in assay [3], 13.2 µM (inactive); in assay [5] it was 4.03 µM (inactive); in [6], 15.2 µM (inactive); in assay [7], 15.5 µM (inactive). The GI50 is 13.8 µM (inactive) in assay [9]; 7.11 µM (inactive) in assay [11]; 3.13 µM (inactive) in assay [15]; 14.3 µM (inactive) in [12]; 8.18 µM (inactive) in [13]; 37.9 µM (inactive) in assay [14].
